One block for each compound: values may come before it. Active and inactive are the calls of the source.
What was measured:
Cytochrome P450 3A4 = Cytochrome P450 3A4 (Homo sapiens, UniProt P08684);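 further: CYP3A4 tested as one member of a cytochrome P450 panel screen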
Cytochrome P450 2C19 = Cytochrome P450 2C19 (Homo sapiens, UniProt P33261); experiment: Cytochrome panel assay with activity outcomes. Panel member name: p450-cyp2c19 Compounds with AC50 equal or less than 10 uM are considered active; assay type: functional; settings: read-out: AC50
Cytochrome P450 1A2 = target: T1, Cytochrome P450 1A2 (Homo sapiens, UniProt P05177);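 further: PubChem cytochrome P450 panel assay, CYP1A2 panel member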
T1 sequence (P05177 whole entry): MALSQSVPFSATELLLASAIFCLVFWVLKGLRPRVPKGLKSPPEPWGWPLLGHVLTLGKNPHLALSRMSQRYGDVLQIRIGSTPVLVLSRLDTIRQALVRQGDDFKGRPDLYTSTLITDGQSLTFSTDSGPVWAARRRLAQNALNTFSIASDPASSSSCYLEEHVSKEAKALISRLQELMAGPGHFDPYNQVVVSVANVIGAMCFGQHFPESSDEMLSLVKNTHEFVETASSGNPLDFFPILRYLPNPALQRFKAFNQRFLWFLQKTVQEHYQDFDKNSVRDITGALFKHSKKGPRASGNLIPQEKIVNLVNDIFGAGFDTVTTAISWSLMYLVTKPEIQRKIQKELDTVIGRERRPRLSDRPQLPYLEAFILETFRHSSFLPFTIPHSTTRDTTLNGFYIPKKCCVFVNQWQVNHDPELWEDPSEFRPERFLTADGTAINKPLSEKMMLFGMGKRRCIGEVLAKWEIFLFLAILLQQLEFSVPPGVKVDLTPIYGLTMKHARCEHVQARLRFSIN

[1] = target: T2, Rac GTPase-activating protein 1 (Homo sapiens, UniProt Q9H0H5); experiment: blockers of MgcRacGAP-driven Rac1 GTP hydrolysis – biochemical, ADP Hunter fluorescence, primary and confirmatory, confirmation (AID 624330); assay type: functional
T2 sequence (Q9H0H5 whole entry): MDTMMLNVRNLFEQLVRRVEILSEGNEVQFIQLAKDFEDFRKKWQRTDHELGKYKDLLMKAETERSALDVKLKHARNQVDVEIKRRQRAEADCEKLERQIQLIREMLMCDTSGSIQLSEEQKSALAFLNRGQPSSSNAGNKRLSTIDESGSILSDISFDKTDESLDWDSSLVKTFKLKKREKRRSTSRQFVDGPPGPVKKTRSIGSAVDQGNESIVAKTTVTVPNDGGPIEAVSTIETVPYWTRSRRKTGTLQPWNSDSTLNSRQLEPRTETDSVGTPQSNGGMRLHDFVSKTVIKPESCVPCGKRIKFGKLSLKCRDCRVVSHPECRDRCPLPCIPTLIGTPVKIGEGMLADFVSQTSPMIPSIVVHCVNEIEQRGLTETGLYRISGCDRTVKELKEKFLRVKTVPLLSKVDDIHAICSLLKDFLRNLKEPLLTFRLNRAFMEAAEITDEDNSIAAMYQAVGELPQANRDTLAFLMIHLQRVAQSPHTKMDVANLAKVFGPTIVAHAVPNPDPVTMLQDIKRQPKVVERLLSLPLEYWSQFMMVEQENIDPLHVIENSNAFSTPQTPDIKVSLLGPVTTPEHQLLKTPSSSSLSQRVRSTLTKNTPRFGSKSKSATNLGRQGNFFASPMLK

[2] = Luminescence Cell-Based Dose Retest to Confirm Inhibitors of Cancer Stem Cells. [Related pubchem assays (depositor defined):AID2717, AID2721]; assay type: functional; settings: Homo sapiens
[3] = Trypanosoma cruzi growth suppression in host cells – NIH3T3 host cells, beta-gal luminescence, confirmation (AID 2044); assay type: functional, cell-based;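 further: intracellular parasites grown in NIH/3T3 mouse fibroblasts as host cells; luminescent beta-galactosidase reporter signal from transgenic T. cruzi replicating inside host cells; inhibitors lower the luminescence signal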
[4] = NIH3T3 cell viability loss – ATP luminescence, mouse fibroblasts, counter-screen, dose response (AID 2010); assay type: functional, cell-based;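 further: cells exposed to compound for about 90 hours before reading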
Cytochrome P450 2C9 = Cytochrome P450 2C9 (Homo sapiens, UniProt P11712)
Cytochrome P450 2C9, sequence (P11712 whole entry): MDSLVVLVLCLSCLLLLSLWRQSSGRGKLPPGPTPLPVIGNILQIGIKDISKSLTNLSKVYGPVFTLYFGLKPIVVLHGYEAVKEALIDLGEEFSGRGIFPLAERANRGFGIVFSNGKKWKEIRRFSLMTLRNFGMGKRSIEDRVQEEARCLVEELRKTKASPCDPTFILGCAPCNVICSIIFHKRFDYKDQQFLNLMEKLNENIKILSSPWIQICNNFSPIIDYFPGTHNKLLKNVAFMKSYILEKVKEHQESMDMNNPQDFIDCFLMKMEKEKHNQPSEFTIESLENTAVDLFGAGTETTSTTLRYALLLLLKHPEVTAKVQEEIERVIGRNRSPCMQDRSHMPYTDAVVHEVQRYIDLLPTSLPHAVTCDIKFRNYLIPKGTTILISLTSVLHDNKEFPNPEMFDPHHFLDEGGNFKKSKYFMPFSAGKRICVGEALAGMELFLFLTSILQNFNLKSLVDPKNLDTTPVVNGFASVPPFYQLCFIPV

Cytochrome P450 2C19, sequence (P33261 whole entry): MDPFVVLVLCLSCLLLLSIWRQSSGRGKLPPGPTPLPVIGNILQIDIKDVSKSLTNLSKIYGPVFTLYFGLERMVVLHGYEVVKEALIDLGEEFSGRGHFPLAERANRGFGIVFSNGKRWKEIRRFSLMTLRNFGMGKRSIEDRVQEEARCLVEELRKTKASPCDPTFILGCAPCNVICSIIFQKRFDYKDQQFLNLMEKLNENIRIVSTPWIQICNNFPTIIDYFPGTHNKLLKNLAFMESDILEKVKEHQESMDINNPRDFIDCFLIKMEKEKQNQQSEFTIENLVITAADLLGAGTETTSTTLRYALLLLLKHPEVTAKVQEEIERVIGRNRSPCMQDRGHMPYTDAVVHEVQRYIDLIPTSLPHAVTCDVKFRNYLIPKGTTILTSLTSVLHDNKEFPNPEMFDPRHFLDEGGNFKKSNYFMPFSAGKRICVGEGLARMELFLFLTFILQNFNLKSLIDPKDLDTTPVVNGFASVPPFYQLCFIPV
Cytochrome P450 3A4, sequence (P08684 whole entry): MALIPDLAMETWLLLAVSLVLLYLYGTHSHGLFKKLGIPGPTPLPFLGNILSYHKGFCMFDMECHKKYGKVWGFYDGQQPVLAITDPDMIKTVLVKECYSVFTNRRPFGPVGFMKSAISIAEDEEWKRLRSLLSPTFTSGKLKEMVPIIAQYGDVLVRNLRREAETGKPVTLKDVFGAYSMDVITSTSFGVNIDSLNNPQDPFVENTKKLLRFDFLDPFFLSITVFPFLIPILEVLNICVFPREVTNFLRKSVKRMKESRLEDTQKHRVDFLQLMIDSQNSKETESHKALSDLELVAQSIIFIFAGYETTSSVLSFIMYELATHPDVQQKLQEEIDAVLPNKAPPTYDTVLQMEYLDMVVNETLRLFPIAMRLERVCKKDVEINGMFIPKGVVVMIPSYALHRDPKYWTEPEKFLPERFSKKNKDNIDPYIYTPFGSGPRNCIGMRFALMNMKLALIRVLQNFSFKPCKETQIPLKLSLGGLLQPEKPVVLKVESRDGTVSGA

AC50 (Cytochrome P450 3A4): 35.5 µM (inconclusive)
Compound: CC(=O)Nc1ccc(Nc2ncnc3c2cnn3-c2ccccc2)cc1

AC50 (Cytochrome P450 3A4): 12.6 µM (inconclusive) | AC50 (Cytochrome P450 2C19): 0.316 µM (inconclusive)
Compound: CC(=O)Nc1cc(C(F)(F)F)ccc1Oc1cccc(Br)c1

Compound: CN(CCC(=O)O)S(=O)(=O)c1ccccc1
AC50 (Cytochrome P450 1A2): 3.16 µM (inconclusive)

IC50 [1]: 109 µM (active)
Compound: COc1ccc(NC2CCCN(C(=O)c3ccc(CSC)o3)C2)cc1OC (stereo unspecified)

Compound: Nc1c(C(O)(C(F)(F)F)C(F)(F)F)cc(C(O)(C(F)(F)F)C(F)(F)F)c2ccccc12
AC50 [2]: 2.46 µM (active)

Compound: OC(CN1CCN(c2ccccn2)CC1)Cn1c2ccc(Cl)cc2c2cc(Cl)ccc21 (stereo unspecified)
AC50 [2]: 3.21 µM (active)

AC50 (Cytochrome P450 3A4): 7.08 µM (inconclusive)
Compound: O=C1CN(c2nc(-c3ccccc3)c3cc(Br)ccc3n2)c2ccccc2N1

Compound: CC(=O)Nc1ccc(S(=O)(=O)c2ccc([N+](=O)[O-])cc2)cc1
EC50 [3]: 0.661 µM (active) | EC50 [4]: > 60 µM (not active)

Compound: O=C(NCC(c1ccco1)N1CCCC1)c1ccccc1Sc1ccc(C(F)(F)F)cc1[N+](=O)[O-] (stereo unspecified)
EC50 [3]: 1.64 µM (active) | EC50 [4]: > 60 µM (not active)

AC50 (Cytochrome P450 3A4): 25.1 µM (inconclusive) | AC50 (Cytochrome P450 2C9): 25.1 µM (inconclusive) | AC50 (Cytochrome P450 2C19): 0.316 µM (inconclusive)
Compound: COc1ccc(Oc2ncc3ncc(=O)n(C4CC4)c3n2)cc1

Compound: O=[N+]([O-])c1ccc(CNCCc2ccccc2)cc1
EC50 [3]: 0.528 µM (active) | EC50 [4]: > 60 µM (not active)

Compound: CCCCN1CSC(=S)N(Cc2ccccc2)C1
AC50 (Cytochrome P450 3A4): 3.16 µM (inconclusive) | AC50 (Cytochrome P450 2C9): 7.94 µM (inconclusive)

AC50 (Cytochrome P450 3A4): 12.6 µM (inconclusive)
Compound: O=c1c2c(-c3ccc(Cl)cc3)csc2nc2n1CCC2

AC50 (Cytochrome P450 3A4): 10 µM (inconclusive)
Compound: CCCC/C=C/C(NC(=O)c1ccc(C(F)(F)F)cc1)c1ccccc1 (stereo unspecified)

Compound: Oc1cc(C(F)(F)F)nc2c(OC(F)(F)F)cccc12
AC50 [2]: 22.4 µM (active)

IC50 [1]: 32.6 µM (active)
Compound: N#Cc1ccccc1S(=O)(=O)N1CCN(C(=O)Cc2coc3cc(O)ccc23)CC1

Compound: O=C(O)/C(=C\c1ccncc1)c1cccc2ccccc12
AC50 (Cytochrome P450 2C9): 3.16 µM (inconclusive)

Compound: CC(=O)Nc1ccc(OCC(O)CN2CCN(c3ccc(C)c(Cl)c3)CC2)cc1 (stereo unspecified)
AC50 [2]: 7.01 µM (active)

AC50 (Cytochrome P450 3A4): 4.47 µM (inconclusive)
Compound: O=C(Nc1ccccc1C(=O)NCC1CCCO1)c1ccc(Cl)cc1Cl (stereo unspecified)

Compound: CCOC(=O)c1c(O)nc(O)c(CC)c1C
AC50 (Cytochrome P450 2C19): 2.51 µM (inconclusive)

AC50 (Cytochrome P450 2C9): 5.01 µM (inconclusive)
Compound: Cc1ccc(S(=O)(=O)CCCS(=O)(=O)c2ccc(C)cc2)cc1

Compound: O=C(Nc1cccc2ccccc12)c1ccc([N+](=O)[O-])s1
EC50 [3]: 0.407 µM (active) | EC50 [4]: > 60 µM (not active)

AC50 (Cytochrome P450 1A2): 3.16 µM (inconclusive)
Compound: COCCn1c(=S)[nH]c2cc(C(=O)NC(C)C)ccc2c1=O

AC50 (Cytochrome P450 2C9): 0.282 µM (inconclusive)
Compound: NC(S)=Nc1cc2ccccc2c2ccccc12

AC50 (Cytochrome P450 3A4): 25.1 µM (inconclusive) | AC50 (Cytochrome P450 2C9): 17.8 µM (inconclusive) | AC50 (Cytochrome P450 2C19): 28.2 µM (inconclusive)
Compound: O=C(c1ccco1)N1CCN(C(=O)C2(S(=O)(=O)c3ccc(Cl)cc3)CC2)CC1

AC50 (Cytochrome P450 1A2): 17.8 µM (inconclusive)
Compound: Cc1ccc(C(=O)C(OC(=O)CCC(=O)Nc2cccc(C)c2)c2ccccc2)cc1 (stereo unspecified)

AC50 (Cytochrome P450 2C9): 6.31 µM (inconclusive)
Compound: COc1ccc(-n2nc3cc(C)c(NC(=S)NC(=O)c4ccccc4C)cc3n2)cc1

Compound: CC(C)c1nc2sc3ccccc3c(=O)c2c(=O)n1Cc1ccccc1
AC50 [2]: 0.796 µM (active)

AC50 (Cytochrome P450 3A4): 15.8 µM (inconclusive)
Compound: COc1ccc(NC(=O)N2CC3(CCN(S(=O)(=O)c4ccccc4)CC3)C2)cc1

AC50 (Cytochrome P450 2C9): 0.398 µM (inconclusive)
Compound: c1cncc(CNc2nc(-c3ccc4c(c3)OCO4)nc3ccccc23)c1

AC50 (Cytochrome P450 3A4): 7.94 µM (inconclusive)
Compound: CC(=O)[C@@H]1CC[C@@H]2[C@@H]3C[C@H](C)C4=CC(=O)CC[C@@]4(C)[C@H]3[C@H](O)C[C@]21C
